Experimental data as given in patent US20170022258A1, “PEPTIDES FOR USE IN THE TREATMENT OF IL-1 RELATED DISEASES AND CONDITIONS” (C4M PHARMACEUTICALS PTY LTD., priority 2011, published 2017).
Non-standard residues stand in square brackets, D forms with d. Residues, ends and D or L forms follow the SMILES beside them.

What was measured:
horses [1] = assay: Testing of peptide 4 in horses for treatment of osteoarthritis and equine laminitis; type: in vivo, horse; settings: 1 mg
Protocol: The peptides were prepared as compositions containing 1 mg of peptide dissolved in 5 ml of solution, comprising water, bicarbonate and either benzyl alcohol or methanol.

[2] = tested on: thoroughbred having equine laminitis; assay: Effect of peptides on equine laminitis (Obel Lameness Grades); type: in vivo, horse
Protocol: Each of the peptides having the sequences 13, 14, 19 and 4 were also tested to determine their effect on equine laminitis. Each peptide was administered intravenously to a thoroughbred having equine laminitis. The peptides were prepared as compositions containing 1 mg of peptide dissolved in 5 ml of a solution comprising water, bicarbonate and either benzyl alcohol or methanol. The effect of the peptides on equine laminitis was judged by the Obel Lameness Grades, which is a system of rating degrees of lameness resulting from laminitis. […] Obel Grade III horses do resist having a foreleg lifted, and are reluctant to walk. Obel Grade IV horses will walk only if forced. The Obel Score for each of the horses was measured before administration of the peptide and 24 hours after injection of the peptide. […] The effect in reducing laminitis which was caused by one single injection of the peptides on laminitis was short-lived. Therefore, the duration of the effect of the peptides in reducing laminitis was further assessed by attending veterinarians.

[3] = tested on: IL-1α+IFN-γ induced IL-8 production by HT-29 cells; assay: IL-1α+IFN-γ induced IL-8 production by HT-29 cells; type: cell-based, human
Protocol: (§1) Human colon epithelial cell lines HT-29 and Caco2 obtained from the European Collection of Animal Cell Cultures (ECACC) were used in cell cultures. Cells were routinely cultured at 37° C. in an atmosphere of 5% CO2 in 80 cm^2 tissue culture flasks in McCoy's and DMEM medium, respectively, supplemented with penicillin (10 u/ml), streptomycin (10 μg/ml), fungizone (0.5 μg/ml), and 10% (v/v) FCS (referred to as complete medium) until confluent.
(§2) Confluent monolayers were sub-cultured into 6-well plates for experimental protocols. Cells were grown in 6-well plates until confluent. Twenty-four hours prior to the experiment the confluent monolayers were washed and cultured in FCS-free McCoy's medium. Growth arrested cultures were then treated with fresh FCS-free medium and stimulated with vehicle controls or various doses of IL-1α added alone or in combination with other pro-inflammatory cytokines (TNF-α, IFN-γ) in the presence or absence of the peptide of sequence 4 or IL-1 ra, in a dose and time dependent manner.
Supernatants were collected, centrifuged to remove cellular debris and stored at −70° C. until assayed for extracellular inflammatory mediators. Total RNA for RT-PCR was extracted as described above. Cell counting and viability was routinely checked at the beginning and the end of the experiment by phase microscopy and by trypan blue exclusion using representative wells. Mycoplasma tests were performed during the experimental protocol. Production of soluble mediators was assessed by commercially available ELISA in supernatants, RT-PCR in total RNA extractants and nitric oxide, as described in Kolios, G, et al. (1995). Br J Pharmacol, 116, 2866-2872, the contents of which are incorporated herein by reference.
Stimulation of HT-29 cells with a combination of pro-inflammatory cytokines induces increased secretion of chemokines, including IL-8 (as described in Kolios, G, et al. (1999). Eur J Immunol, 29, 530-536 the contents of which are herein incorporated by reference). […]

[4] = tested on: IL-1α+IFN-γ induced IL-17 production by HT-29 cells; assay: IL-1α+IFN-γ induced IL-17 production by HT-29 cells; type: cell-based, human; settings: 10 ng/ml IL-1α+300 U IFN-γ, peptide 10 ng/ml and 500 ng/ml, stimulated control 13.14±3.92, n=6, p<0.001
Protocol: as §1, §2
Supernatants were collected, centrifuged to remove cellular debris and stored at −70° C. until assayed for extracellular inflammatory mediators. […] Production of soluble mediators was assessed by commercially available ELISA in supernatants, RT-PCR in total RNA extractants and nitric oxide, as described in Kolios, G, et al. (1995). […]

[5] = Stability of peptide once dissolved in solution (1 month); type: physicochemical; settings: 1 mg in 5 ml water, bicarbonate and benzyl alcohol (19, 4) or methanol (13, 14)
Protocol: Each of the peptides having the sequences 13, 14, 19 and 4 were tested to determine their stability in a solution containing (preferred composition above) water, bicarbonate and either benzyl alcohol (peptide 19 and 4) or methanol (peptide 13 and 14). Each of the peptides were held for a period of 1 month at either 4° C. or at room temperature.
1 mg of each peptide was added to the water, bicarbonate and either benzyl alcohol or methanol solution and the solution was gently agitated for 1 hour at room temperature before standing at either 4° C. or at room temperature for a period of 1 month.

horses [6] = assay: Equine case studies (inflammatory conditions); type: in vivo, horse
Protocol: In these case studies, 13 different horses each suffering from different inflammatory conditions were treated with peptide 4, which was administered by injection in a composition containing the peptide dissolved in 5 ml of a solution comprising water, bicarbonate and either benzyl alcohol or methanol.

CC(=O)N[C@H](CC(C)C)C(=O)N1CCC[C@@H]1C(=O)N[C@H](CC(C)C)C(=O)N[C@H](C)C(=O)N[C@H](Cc1ccc(O)cc1)C(=O)N1CCC[C@@H]1C(=O)N[C@H](CCC(N)=O)C(=O)N[C@H](Cc1c[nH]c2ccccc12)C(=O)N[C@H](Cc1ccc(O)cc1)C(=O)NCC(=O)N1CCC[C@@H]1C(=O)N[C@@H](C(=O)N[C@H](Cc1c[nH]c2ccccc12)C(=O)N[C@H](CCC(=O)O)C(=O)N[C@H](Cc1ccccc1)C(=O)O)[C@H](C)O [SEQ ID NO. 4, Ac-LPLAYPQWYGPTWEF] (Ac-[dL][dP][dL][dA][dY][dP][dQ][dW][dY]G[dP][dT][dW][dE][dF]-OH; C-terminus assumed)
Duration (horses [1]; Laminitis, IV): 72 h | Effect (horses [1]; Laminitis, IV): Pronounced | Duration (horses [1]; OA, Joint): 48 h | Effect (horses [1]; OA, Joint): Moderate | Change in Obel Score ([2]; 1 mg intravenously, before vs 24 hours after injection, most negative = greatest improvement): −2.9 | Duration (days) of effect on laminitis ([2]; single 1 mg intravenous, averaged, report by veterinarians): 4 days | IL-1α+IFN-γ induced IL-8 production ([3]; 10 ng/ml IL-1α+300 U IFN-γ, peptide 5 ng/ml, stimulated control 78.79±6.99, n=3): 35.41±4.23 ng/ml per 106 cells | Effect on IL-1α+IFN-γ induced IL-8 production ([3]; all concentrations used, 5 ng/ml-1 μg/ml, p<0.01, FIG. 3): inhibitory effect for all concentrations used | IL-1α+IFN-γ-induced IL-17 production [4]: 4.97±0.84 pg/ml per 106 cells | Stability of peptide once dissolved in solution (at 1 month), 4° C. (month) ([5]; 4° C.): 100% | Stability of peptide once dissolved in solution (at 1 month), Room Temp (month) ([5]; room temperature): 96% | Period without inflammation post-administration (horses [6]; Case 1): observed for 48 hours | Period of minimal pain and no heat post-administration (horses [6]; Case 2): 48 hours post- | Observations (horses [6]; Case 2: severe pain and heat in near fore hoof, 1 mg bolus intravenous): Minimal pain and no | Observations (horses [6]; Case 3: years of mild laminitis, 1 mg bolus intravenous every 3rd day for three weeks, during period of treatment): Complete relief of all | Time post-administration at which symptoms returned (horses [6]; Case 4): after 8 days. 10 days | Observations (horses [6]; Case 4: near fore fetlock heat and pain, fluid build up in lower deep flexor tendon, 1 mg bolus intravenous, after 8 days): Fetlock completely | Period with no pain or palpation (horses [6]; Case 5): observed for 14 days. | Period of complete pain relief and increased flexion (horses [6]; Case 6): observed for 6 days. | Observations (horses [6]; Case 6: four years of general knee joint pain, sodium hyaluranate (Synvisc) intra-articularly followed by 0.5 mg peptide 4): Complete pain relief | Observations (horses [6]; Case 7: three years of general knee pain, sodium hyaluranate (Synvisc) intra-articularly followed by 0.5 mg peptide 4, no follow up treatment required): Complete pain relief | Period of pronounced relief of symptoms (horses [6]; Case 8): over a 72 hour period. | Observations (horses [6]; Case 9: severe muscle/ligament tear between shoulder and rib cage, 1 mg bolus intravenous, within 24 hours): Symptoms reduced | Observations (horses [6]; Case 10: chronic joint pain in both knees and fetlocks, sodium hyaluranate (Synvisc) intra-articularly followed by 0.5 mg peptide 4, within 24 hours post-treatment): Significant pain relief, | Observations (horses [6]; Case 11: mild work-related shin soreness, 1 mg bolus intravenous every 3rd day for a week, after the second injection): Significant improvement | Observations (horses [6]; Case 12: mild work-related shin soreness, 1 mg bolus intravenous, after 24 hours post-administration): Significant pain relief | Observations (horses [6]; Case 13: severe pain from inflammation and fluid build-up at 18 month old tendon injury, 1 mg weekly bolus intravenous): Complete relief of pain,
